The source of these data is patent US4473587A, “Prostaglandin E1 analogues” (Ono Pharmaceutical Co., Ltd., priority 1982, dated 1984).

The subject of one data set is mice. Nature of the data set: acute toxicity in mice by oral administration. It is filed as in vivo, mouse. The conditions noted are these: 10 mg/kg animal body weight, 5 cases. The source says: Therefore, the compounds of the present invention may be considered to be sufficiently safe and suitable for medical use.
For a further data set, the system named is blood pressure. Nature of the data set: hypotensive effect in the allobarbital anesthetized dog. Format: in vivo. Particulars: for hypotensive side-effect: in words, in comparison with known compounds D, E, F and G; for Hypotensive effect (E1 = 1): relative to PGE1 taken as 1.00, allobarbital anesthetised dog; for Hypotensive effect (E1 = 1) / duration of fall in blood pressure / fall in blood pressure: i.v.; for duration of fall in blood pressure / fall in blood pressure: allobarbital anesthetized dog. The procedure: (ii) by intravenous administration to the allobarbital anesthetized dog, compound B produced falls in blood pressure of 13 and 31 mmHg lasting 17 and 37 minutes at the doses of 1 and 2 μg/kg animal body weight, respectively.
(§1) In the Table, the values of side-effects are indicated relative to the activity of PGE1, taken as 1.00.
^(2) By intravenous administration to the allobarbital anesthetised

For data set [1], the system named is D(+)-galactosamine-induced liver damage. Nature of the data set: D(+)-galactosamine-induced liver damage in rats. Format: in vivo. The conditions noted are these: D(+)-galactosamine 375 mg/kg i.p. twice, rat, 100 μg/kg oral five times, blood at 48 hrs, vs control.
In another data set the test system is uterine contraction. The data set can be described thus: uterine contraction in the pregnant female rat. Format: in vivo. The conditions noted are these: 20th day of gestation, i.v., doses of 50 and 20 μg/kg (compound A and compound B).
Data set [2] has as its system adenosine diphosphate-induced blood platelet aggregation. Nature of the data set: inhibition of adenosine diphosphate-induced blood platelet aggregation in platelet rich plasma of rats. Format: cell-based, rat. The conditions noted are these: for platelet aggregation inhibiting side-effect: in words, in comparison with known compounds D, E, F and G; for Platelet aggregation inhibition (E1 = 1): relative to PGE1 taken as 1.00, ADP-induced, platelet rich plasma of rats.
Description: as §1
^(3) Inhibition of adenosine diphosphateinduced blood platelet
aggregation in plateletrich plasma of rats.

Data set [3] deals with carbon tetrachloride-induced liver damage. The data set can be described thus: carbon tetrachloride-induced liver damage in rats (plasma GOT, GPT). Format: in vivo, rat. Particulars: for cytoprotective activity compared with known compound H / cytoprotective activity: in words; for cytoprotective activity compared with known compound H: comparison with compound H; for cytoprotective activity: from the Table; for inhibition in vivo at 0.02 mg/kg / inhibition in vivo at 0.1 mg/kg / inhibition in vivo at 0.05 mg/kg / inhibition in vivo at 0.2 mg/kg: po, CCl4, rat, vs controls; for inhibition in vivo at 0.02 mg/kg: 20 μg/kg p.o.; for inhibition in vivo at 0.1 mg/kg: 100 μg/kg p.o.; for inhibition in vivo at 0.05 mg/kg: 50 μg/kg p.o.; for inhibition in vivo at 0.2 mg/kg: 200 μg/kg p.o. The source says:
In the following Table, the pharmacological activities, i.e. carbon tetrachloride-induced cytodamage inhibition as an example of cytoprotective activity, and hypotensive and platelet aggregation inhibition activities as examples of side-effects, of known compounds are compared with those of compounds A, B and C of the invention.
^(1) The method used was that described in the specification of U.S.

Data set [4] has as its system α-naphthylisothiocyanate-induced liver damage. Nature of the data set: α-naphthylisothiocyanate-induced liver damage in rats. It is filed as in vivo. Particulars: rat, 100 μg/kg oral, vs controls.
Setting [5] is: read-out: inhibition of plasma GOT (glutamic oxaloacetic transaminase).
[6] abbreviates: read-out: inhibition of plasma GPT (glutamic pyruvic transaminase).

Structures are written as SMILES. Like-named read-outs stand apart in the source and are kept apart here.

Turning to `CCCCC1CC[C@H]([C@H](O)/C=C/[C@H]2[C@H](O)CC(=O)[C@@H]2CC(=O)CCCCCO)C1` (stereo partly drawn) [A, 2-decarboxy-2-hydroxymethyl-6-oxo-15-(3(RS)-butyl-1(S)-cyclopentyl)-16,17,18,19,20-pentanor-PGE1], the “deaths in acute toxicity test” value with mice is “no deaths in 5 cases”. Also, in the data set on blood pressure, the hypotensive side-effect entry is “very weak side-effects” and the “Hypotensive effect (E1 = 1)” value worked out at 1.2. Further, in data set [1], the “inhibition of plasma GOT” value was determined as 20.4%, the “inhibition of plasma GPT” value was determined as 45.1% and the “inhibition of plasma bilirubin” value is on record as 36.2%. Besides, in the data set on uterine contraction, the “stimulation of uterine contraction” value is recorded as “stimulated uterine contraction”. For the same compound, in data set [2], the “platelet aggregation inhibiting side-effect” value is reported as “very weak side-effects” and the “Platelet aggregation inhibition (E1 = 1)” value turned out to be 0.05. Further, in data set [3], the “cytoprotective activity compared with known compound H” value is “superior in their cytoprotective activity to the known compound H” and the cytoprotective activity result is reported as “possess cytoprotective activity”. For the same compound, in data set [3] (setting [5]), the inhibition in vivo at 0.02 mg/kg came out at 56.6% and the inhibition in vivo at 0.1 mg/kg was found to be 71.8%. Also, in data set [3] (setting [6]), the inhibition in vivo at 0.02 mg/kg stood at 58.8% and the inhibition in vivo at 0.1 mg/kg amounted to 53.6%.

Turning to `CCCC1CC[C@H]([C@H](O)/C=C/[C@H]2[C@H](O)CC(=O)[C@@H]2CC(=O)CCCCCO)C1` (stereo partly drawn) [B, 2-decarboxy-2-hydroxymethyl-6-oxo-15-(3(RS)-propyl-1(S)-cyclopentyl)-16,17,18,19,20-pentanor-PGE1], the “deaths in acute toxicity test” value in the data set with mice is “two deaths in 5 cases”. For the same compound, in the data set with blood pressure (1 μg/kg), the “duration of fall in blood pressure” value was 17 min and the “fall in blood pressure” value is 13 mmHg. Moreover, in the data set on blood pressure (2 μg/kg), the “duration of fall in blood pressure” value was found to be 37 min and the “fall in blood pressure” value was 31 mmHg. Also, in the data set on blood pressure, the hypotensive side-effect result is on record as “very weak side-effects” and the “Hypotensive effect (E1 = 1)” value stood at 0.35. Further, in data set [1], the “inhibition of plasma GOT” value is listed as 40.0%, the “inhibition of plasma GPT” value is reported as 50.3% and the “inhibition of plasma bilirubin” value worked out at 44.2%. In the data set on uterine contraction, the “stimulation of uterine contraction” value is “stimulated uterine contraction”. Moreover, in data set [2], the “platelet aggregation inhibiting side-effect” value is on record as “very weak side-effects” and the “Platelet aggregation inhibition (E1 = 1)” value was 0.05. Moreover, in data set [3], the “cytoprotective activity compared with known compound H” value is given as “superior in their cytoprotective activity to the known compound H” and the cytoprotective activity result is given as “possess cytoprotective activity”. Besides, in data set [3] (setting [5]), the inhibition in vivo at 0.05 mg/kg is 29.6%. Also, the inhibition in vivo at 0.05 mg/kg in data set [3] (setting [6]) is 21.5%. In addition, in data set [4], the “inhibition of plasma GOT” value was 52.6%, the “inhibition of plasma GPT” value stood at 62.5% and the “inhibition of plasma bilirubin” value came out at 30.3%.

Turning to `O=C(CCCCCO)C[C@H]1C(=O)C[C@@H](O)[C@@H]1/C=C/[C@@H](O)C1CCCC1` [C, 2-decarboxy-2-hydroxymethyl-6-oxo-15-cyclopentyl-16,17,18,19,20-pentanor-PGE1], the “deaths in acute toxicity test” value in the data set with mice was “no deaths in 5 cases”. Besides, in the data set with blood pressure, the hypotensive side-effect result is “very weak side-effects” and the “Hypotensive effect (E1 = 1)” value turned out to be 0.77. Also, in data set [2], the “platelet aggregation inhibiting side-effect” value is “very weak side-effects”. In data set [3], the “cytoprotective activity compared with known compound H” value is listed as “superior in their cytoprotective activity to the known compound H” and the cytoprotective activity result was “possess cytoprotective activity”. Moreover, the inhibition in vivo at 0.2 mg/kg in data set [3] (setting [5]) turned out to be 7.9%. Also, the inhibition in vivo at 0.2 mg/kg in data set [3] (setting [6]) amounted to 29.9%.

`CCCC1CCC([C@H](O)/C=C/[C@H]2[C@H](O)CC(=O)[C@@H]2CC(=O)CCCCC(=O)O)C1` (stereo partly shown) [D, 6Oxo-15-(3RS-propyl-1RS-cyclopentyl)-16,17,18,19,20-pentanor-PGE1, reference compound]: the “Hypotensive effect (E1 = 1)” value with blood pressure stood at 13. The “Platelet aggregation inhibition (E1 = 1)” value in data set [2] is 48.4. Moreover, the cytoprotective activity entry in data set [3] is on record as “possess cytoprotective activity”.

With `CCCC1CCC([C@H](O)/C=C/[C@H]2[C@H](O)CC(=O)[C@@H]2CC(=O)CCCCC(=O)OC)C1` (stereo partly shown) [E, 6Oxo-15-(3RS-propyl-1RS-cyclopentyl)-16,17,18,19,20-pentanor-PGE1 methyl ester, reference compound], the “Hypotensive effect (E1 = 1)” value in the data set with blood pressure is recorded as 25.7. In addition, the “Platelet aggregation inhibition (E1 = 1)” value in data set [2] is reported as 58.6. The cytoprotective activity result in data set [3] is “possess cytoprotective activity”. In addition, the inhibition in vivo at 0.1 mg/kg in data set [3] (setting [5]) amounted to 77%.

For the compound `CCCCC1CCC([C@H](O)/C=C/[C@H]2[C@H](O)CC(=O)[C@@H]2CC(=O)CCCCC(=O)OC)C1` (stereo partly shown) [F, 6Oxo-15-(3RS-butyl-1RS-cyclopentyl)-16,17,18,19,20-pentanor-PGE1 methyl ester, reference compound], the “Hypotensive effect (E1 = 1)” value in the data set on blood pressure is 12.6. Also, the “Platelet aggregation inhibition (E1 = 1)” value in data set [2] was 51.0. Moreover, the cytoprotective activity entry in data set [3] is recorded as “possess cytoprotective activity”.

For the compound `CCCC1CCC([C@H](O)/C=C/[C@H]2[C@H](O)CC(=O)[C@@H]2CC(=O)CCCCC(=O)OC)CC1` (stereo partly shown) [G, 6Oxo-15-(4RS-propyl-1RS-cyclohexyl)-16,17,18,19,20-pentanor-PGE1 methyl ester, reference compound], in the data set with blood pressure, the “Hypotensive effect (E1 = 1)” value is 6.2. Further, in data set [2], the “Platelet aggregation inhibition (E1 = 1)” value is recorded as 19.7. In addition, the cytoprotective activity result in data set [3] is reported as “possess cytoprotective activity”.

Regarding `CCCCC[C@H](O)/C=C/[C@H]1[C@H](O)CC(=O)[C@@H]1CC(=O)CCCCCO` [H, 2Decarboxy-2-hydroxymethyl-6-oxo-PGE1, reference compound], the inhibition in vivo at 0.1 mg/kg in data set [3] (setting [5]) was 3.4%; in data set [3] (setting [6]) it was -0.07%.
